Measurements taken from patent US5726184A, “Tetralin compounds with improved MDR activity” (Vertex Pharmaceuticals Incorporated, priority 1995, dated 1998).
pIC50: −log10 of the molar value. Where two headings read alike, the source gives them in different places.

What was measured:
L1210vDOX = test: Reversal of MDR in L1210vDOX (MDR sensitization assay, doxorubicin with or without MDR inhibitor); format: cell-based, mouse; details: for pIC50: 3 days
HL60/ADR cells = test: Reversal of MRP-mediated MDR in HL60/ADR cells (doxorubicin with or without MDR inhibitor); format: cell-based; details: HL60/ADR
Protocol: We plated HL60/ADR cells in 96 well microtiter plates (4×10^4 cells/well). The cells were then exposed to various concentrations of doxorubicin (50 nM to 10 μM) in the presence or absence of various compounds of this invention at various concentrations (0.5-10 μM). After culturing the cells for 3 days, their viability was quantitated using the XTT dye method to assess mitochondrial function. […] IC50 values are expressed in nM. In all assays the intrinsic antiproliferative or cytotoxicity activity of the MDR inhibitors was also determined for HL60/ADR cells.

Row | SMILES | MDR ratio (IC50 Dox / IC50 Dox+Inhibitor) (L1210vDOX; MDR ratio at 0.5 μM Cpd) | MDR ratio (IC50 Dox / IC50 Dox+Inhibitor) (L1210vDOX; MDR ratio at 1.0 μM Cpd) | MDR ratio (IC50 Dox / IC50 Dox+Inhibitor) (L1210vDOX; MDR ratio at 2.5 μM Cpd) | Fold reversal (IC50 doxorubicin alone / IC50 doxorubicin + MDR inhibitor) (HL60/ADR cells; ratio at 0.5 μM Cpd) | Fold reversal (IC50 doxorubicin alone / IC50 doxorubicin + MDR inhibitor) (HL60/ADR cells; ratio at 1.0 μM Cpd) | Fold reversal (IC50 doxorubicin alone / IC50 doxorubicin + MDR inhibitor) (HL60/ADR cells; ratio at 2.5 μM Cpd) | pIC50 (L1210vDOX; IC50 of doxorubicin in presence of 0.5 μM Cpd, read-out: IC50 DOX + 0.5 μM Cpd) | pIC50 (L1210vDOX; IC50 of doxorubicin in presence of 1.0 μM Cpd, read-out: IC50 DOX + 1.0 μM Cpd) | pIC50 (L1210vDOX; IC50 of doxorubicin in presence of 2.5 μM Cpd, read-out: IC50 DOX + 2.5 μM Cpd)
1 | COc1cc(C(=O)C(=O)N2CCCC[C@H]2C(=O)N(Cc2ccccc2)C2CCCc3ccc(OCc4ccncc4)cc32)cc(OC)c1OC (single isomer, unassigned) [Compound 15] | 6.1 | > 8.5 | > 8.5 | – | – | – | – | – | –
2 | COc1cc(C(=O)C(=O)N2CCCC[C@H]2C(=O)N(Cc2ccccc2)C2CCCc3ccc(OCc4ccncc4)cc32)cc(OC)c1OC (single isomer, unassigned) [Compound 16] | 2.2 | 7.1 | > 8.5 | 2.3 | 39 | > 60 | – | – | –
3 | CCCOc1cc2c(c(OCCC)c1C)CC[C@@H](Cc1cccnc1)[C@H]2OC(=O)[C@@H]1CCCCN1C(=O)C(=O)c1cc(OC)c(OC)c(OC)c1 (single isomer, unassigned) [Compound 29B] | 1.8 | 3.7 | > 7.0 | – | – | – | – | – | –
4 | CCCOc1cc2c(c(OCCC)c1C)CC[C@H](Cc1cccnc1)[C@H]2OC(=O)[C@@H]1CCCCN1C(=O)C(=O)c1cc(OC)c(OC)c(OC)c1 (single isomer, unassigned) [Compound 30A] | 1.4 | 2.3 | > 7.0 | – | – | – | – | – | –
5 | CCCOc1cc2c(c(OCCC)c1C)CC[C@@H](Cc1cccnc1)[C@@H]2OC(=O)[C@@H]1CCCCN1C(=O)C(=O)c1cc(OC)c(OC)c(OC)c1 (single isomer, unassigned) [Compound 30B] | 1.4 | 2.0 | > 7.0 | – | – | – | – | – | –
6 | COc1cc(C(=O)C(=O)N2CCCC[C@H]2C(=O)O[C@H]2CCCc3ccc(OCc4ccncc4)cc32)cc(OC)c1OC [Compound 6, 1-(2-Oxo-2-(3,4,5-trimethoxyphenyl)-acetyl)-piperidine-2(S)-carboxylic acid 2-((7-pyridin-4-ylmethoxy)-1,2,3,4-tetrahydronaphthalen-1(S)-yl) ester] | 4.8 | 6.3 | 9.5 | 8.8 | 6.4 | 39 | – | – | –
7 | COc1cc(C(=O)C(=O)N2CCCC[C@H]2C(=O)O[C@@H]2CCCc3ccc(OCc4ccncc4)cc32)cc(OC)c1OC [Compound 7, 1-(2 -Oxo-2(3,4,5-trimethoxyphenyl)-acetyl)-piperidine-2(S)-carboxylic acid 2-((7-pyridin-4-ylmethoxy)-1,2,3,4-tetrahydronaphthalen-1(R)-yl) ester] | 23.1 | 4.8 | 9.5 | – | – | – | – | – | –
8 | COc1cc(C(=O)C(=O)N2CCCC[C@H]2C(=O)OC2CCCc3c(OCc4ccncc4)cccc32)cc(OC)c1OC (stereo partly drawn) [Compound 9, 1-(2-Oxo-2-(3,4,5-trimethoxyphenyl)-acetyl)-piperidine-2(S)-carboxylic acid 2-((5-pyridin-4-ylmethoxy)-1,2,3,4-tetrahydronaphthalen-1-yl) ester] | 6.4 | 13.7 | 22.8 | – | – | – | 6.12 | 6.46 | 6.76
